Source: patent US4530931A, “8-Quinoline carbanilates for the inhibition of lipolysis” (priority 1984, dated 1985)

How the values were obtained:
[1] = system: rat adipocyte lipolysis; test: Rat adipocyte assay (epinephrine-stimulated lipolysis, glycerol release); type: cell-based; details: for IC50: epinephrine 3 μM plus methylisobutylxanthine 10 μM, 1 hour at 37° C., read-out: Adipocyte I50; for Adipocyte % Inhib. at 3 μM: 3 μM compound; for inhibition at 100 µM: read-out: Adipocyte % Inhib. at 100 μM
Protocol: Abdominal fat pads were removed from male rats weighing 200-250 grams and placed in Krebs-bicarbonate buffer gassed with 95% O2 /5% CO2. The fat pads were digested with collagenase for 1 hour at 37° C., washed twice with Krebs-bicarbonate buffer and distributed among a set of 20 ml plastic counting vials. Two such vials received only buffer and cells (4 ml) but no agonists or antagonists. The remaining vials received epinephrine (3 μM) plus the phosphodiesterase inhibitor methylisobutylxanthine (10 μM). Test compounds were dissolved in DMSO or water to a concentration of […] and […] was added to the buffer plus cells in the counting vials. The final compound concentration for routine screening was 200 μM (final concentration of DMSO=1%).
The cells were incubated for 1 hour at 37° C. under a 95% O2 /5% CO2 atmosphere. The incubation was stopped by placing the vials in crushed ice. The cells and medium were transferred to test tubes, centrifuged and the cell layer removed by aspiration. The aqueous phase was assayed for glycerol using the enzyme glycerol dehydrogenase.
The glycerol dehydrogenase assay for glycerol depends on the enzyme catalyzed conversion of glycerol to glyceraldehyde and NAD to NADH. The assay can detect as little as 5-10 nanomoles of glycerol. The aqueous phase, following removal of cells, usually contained about 50 to 80 nanomoles of glycerol per 300 μl of assayed sample if no inhibitory activity was present. Samples from the control tubes (no agonist) usually contained 0-5 nanomoles of glycerol per 300 μl of sample.

[2] = system: Canine cardiac lipases; test: Myocardial lipase assay; type: biochemical; details: for Lipase % Inh. at 100 μM: 100 μM compound, tested in duplicate; for IC50: triolein emulsion, Tris pH 6.8, read-out: Lipase I50
Protocol: All compounds were dissolved in DMSO (final concentration 3.0%) and tested in duplicate at a concentration of 100 μM. Canine cardiac lipases were obtained by extracting washed heart membranes with buffer plus heparine and a small amount of Triton X-100 detergent. Because these enzymes are only active at an oil-water interface, the enzyme reaction is run in an oil-water emulsion that contains triolein substrate, Tris buffer (50mM, pH 6.8) and a small amount of bovine serum albumin (0.5%) added to stabilize the emulsion. A small amount of tritiated triolein was added to the unlabelled triolein substrate. Tritium-labelled oleic acid released by the lipases was extracted into hexane, separated from unreacted triolein and counted in a scintillation counter. Inhibitory agents reduce the amount of radioactivity appearing in the free fatty acid fraction isolated in the extraction procedure.

[3] = Rattus norvegicus, Adipocyte, 100 μM compound

| Lipase % Inh. at 100 μM [2] | Compound | Adipocyte % Inhib. at 3 μM [1] | further results |
| --- | --- | --- | --- |
| 70% | 4-Methoxyphenyl-8-quinolyl Urea [No. 6] | – | Adipocyte % Inhib. at 100 μM ([1]; 100 μM compound): 98% |
| 76% | 8-(4-Methoxyphenylcarbamoyl)-quinolin)-5-sulfonic acid, Triethylamine [No. 23] | – | IC50 [1]: 35 µM |
| – | 8-quinolyl-2-chloro carbanilate [No. 10] | – | Adipocyte % Inhib. at 200 μM ([1]; 200 μM compound): 44%; IC50 [2]: 200 µM |
| – | 2-methyl-8-quinolyl carbanilate [No. 19] | – | IC50 [1]: 10 µM; IC50 [2]: 48 µM |
| – | COc1cccc(NC(=O)Oc2cccc3cccnc23)c1 [No. 3, 8-quinolyl-3-methoxy carbanilate] | – | IC50 [2]: 18 µM |
| 1% | 8-quinolyl-2-methyl carbanilate [No. 13] | – | – |
| 65% | 8-quinolyl-carbanilate [No. 18] | – | IC50 [1]: 0.2 µM |
| – | COc1ccc(NC(=O)Oc2cccc3cccnc23)cc1 [No. 1, 8-Quinolyl-4-Methoxy Carbanilate] | – | IC50 [2]: 17 µM |
| 41% | 8-quinolyl-3-methyl carbanilate [No. 12] | 5% | – |
| 56% | 8-quinolyl-4-bromo carbanilate [No. 17] | 7% | – |
| 72% | 2-methoxyphenyl-8-quinoyl carbamate [No. 5] | – | IC50 [1]: 5.8 µM |
| 75% | 8-quninolyl-4-carbethoxy carbanilate [No. 7] | – | Adipocyte % Inhib. at 30 μM ([1]; 30 μM compound): 3% |
| 74% | 8-Quinolyl-4-methoxy Acetanilide [No. 25] | – | IC50 [1]: 35 µM |
| – | 8-quinolyl-4-chloro carbanilate [No. 8] | – | IC50 [1]: 30 µM; IC50 [2]: 20 µM |
| 63% | 8-quinolyl-3-trifluoromethyl carbanilate [No. 14] | 76% | – |
| 83% | (S)8-quinolyl alpha-methyl benzyl carbamate [No. 28] | – | Adipocyte % Inhib. at 200 μM ([1]; 200 μM compound): 14% |
| 58% | 8-quinolyl-4-methyl carbanilate [No. 11] | 52% | – |
| – | 8-quinolyl-3-chloro carbanilate [No. 9] | – | Adipocyte % Inhib. at 200 μM ([1]; 200 μM compound): 4%; IC50 [2]: 7300 µM |
| 69% | 8-quinolyl-4-methoxy phenethyl carbamate [No. 27] | 4% | – |
| 68% | 5,7-dichloro-8-quinolyl carbanilate [No. 24] | – | IC50 [1]: 0.2 µM |
| 13% | COc1ccc(C(=O)Oc2cccc3cccnc23)cc1 [No. 31, 8-quinolyl-4-methoxy benzoate] | – | inhibition at 200 µM ([1]; Rattus norvegicus, Adipocyte, 200 μM compound, read-out: Adipocyte % Inhib. at 200 μM): 49% |
| 7% | COc1ccc(NC(=O)COc2cccc3cccnc23)cc1 [compound 25] | – | inhibition at 100 µM [1, 3]: 26% |
| – | 2-methyl-8-quinolyl-4-methoxy carbanilate [No. 20] | 5% | IC50 [2]: 80 µM |
| 68% | 8-quinolyl-4-methoxy benzyl carbamate [No. 26] | 5% | – |
| 69% | 2-methyl-8-quinolyl-4-bromo carbanilate [No. 21] | 28% | – |
| 7% | 8-quinolyl-2,5-dimethoxy carbanilate [No. 16] | 40% | – |
| – | COc1ccccc1NC(=O)Oc1cccc2cccnc12 [No. 2, 8-quinolyl-2-methoxy carbanilate] | – | IC50 [2]: 40 µM |
| 64% | 8-quinolyl-2,4-dimethoxy carbanilate [No. 15] | 84% | – |
| 56% | (R)8-quinolyl alpha-methyl benzyl carbamate [No. 29] | – | Adipocyte % Inhib. at 200 μM ([1]; 200 μM compound): 28% |
| – | COc1ccc(CC(=O)Oc2cccc3cccnc23)cc1 [No. 30, 8-Quinoloyl-4-methoxyphenylAcetate] | – | inhibition at 100 µM [1, 3]: 74% |

| Compound | Lipase % Inh. at 100 μM [2] | Adipocyte % Inhib. at 3 μM [1] | further results |
| --- | --- | --- | --- |
| 5-chloro-8-quinolyl carbanilate [No. 22] | 68% | 29% | – |
